Reference: US6734203B2, “Fused imidazolium derivatives” (priority 2000, dated 2004)

Assay: Mouse single administration toxicity test
Type: in vivo, Balb/C mice
Conditions: 3 mg/kg single intravenous administration, observation period of 2 weeks
Description: (Test methods) The compounds of the invention were administered by single intravenous administration to Balb/C mice, and the presence of mortal case during the observation period of 2 weeks was evaluated.

| Structure (SMILES) | presence of mortal case |
| --- | --- |
| COCCn1c2c([n+](Cc3cccnc3)c1C)C(=O)c1ccccc1C2=O [Example 180, 1-(2-methoxyethyl)-2-methyl-4,9-dioxo-3-(3-pyridylmethyl)-4,9-dihydro-1H-naphtho[2,3-d]imidazol-3-ium] | Mortal case was not found |
| COCCN(C(C)=O)C1=C(NCc2cccnc2)C(=O)c2ccccc2C1=O [Example 35, N-(2-methoxyethyl)-N-[3-(3-pyridylmethyl)amino-1,4-dihydro-1,4-dioxo-2-naphthalenyl]acetamide] | Mortal case was not found |
| COCC[n+]1c2c(n(Cc3ccc(OC)nc3)c1C)C(=O)c1ccccc1C2=O [Example 186, 3-(2-methoxyethyl)-1-[(6-methoxy-3-pyridyl)methyl]-2-methyl-4,9-dioxo-4,9-dihydro-1H-naphtho[2,3-d]imidazol-3-ium] | Mortal case was not found |
| COCC[n+]1c2c(n(Cc3ccnc(Cl)c3)c1C)C(=O)c1ccccc1C2=O [Example 192, 1-[(2-chloro-4-pyridyl)methyl]-3-(2-methoxyethyl)-2-methyl-4,9-dioxo-4,9-dihydro-1H-naphtho[2,3-d]imidazol-3-ium] | Mortal case was not found |
| COCCn1c2c([n+](Cc3ccncc3)c1C)C(=O)c1ccccc1C2=O.Cl.[Cl-] [Example 182, 1-(2-methoxyethyl)-2-methyl-3-(4-pyridylmethyl)-4,9-dihydro-4,9-dioxo-1H-naphtho[2,3-d]imidazol-3-ium chloride monohydrochloride] | Mortal case was not found |
| COCC[n+]1c2c(n(Cc3ccc(Cl)nc3)c1C)C(=O)c1ccccc1C2=O.[Cl-] [Example 9, 1-[(6-chloro-3-pyridyl)methyl]-3-(2-methoxyethyl)-2-methyl-4,9-dioxo-4,9-dihydro-1H-naphtho[2,3-d]imidazol-3-ium chloride] | Mortal case was not found |
| COCC[n+]1c2c(n(Cc3ccc(Cl)cc3)c1C)C(=O)c1ccccc1C2=O [Example 197, 1-(4-chlorobenzyl)-3-(2-methoxyethyl)-2-methyl-4,9-dioxo-4,9-dihydro-1H-naphtho[2,3-d]imidazol-3-ium] | Mortal case was not found |
| COCCNC1=C(N(Cc2ccncc2)C(C)=O)C(=O)c2ccccc2C1=O [Example 4, N-[3-(2-methoxyethyl)amino-1,4-dihydro-1,4-dioxo-2-naphthalenyl]-N-(4-pyridylmethyl)acetamide] | Mortal case was not found |
| COCC[n+]1c2c(n(Cc3ccnc(O)c3)c1C)C(=O)c1ccccc1C2=O [Example 185, 1-[(2-hydroxy-4-pyridyl)methyl]-3-(2-methoxyethyl)-2-methyl-4,9-dioxo-4,9-dihydro-1H-naphtho[2,3-d]imidazol-3-ium] | Mortal case was not found |
| Cn1c2c([n+](C)c1CCl)C(=O)c1ccccc1C2=O [KP-1, reference compound] | all of respective 2 cases died |
| COCC[n+]1c2c(n(Cc3cnccn3)c1C)C(=O)c1ccccc1C2=O [Example 154, 3-(2-methoxyethyl)-2-methyl-4,9-dioxo-1-(2-pyrazinylmethyl)-4,9-dihydro-1H-naphtho[2,3-d]imidazol-3-ium] | Mortal case was not found |
| COCCn1c2c([n+](CCOC)c1C)C(=O)c1ccccc1C2=O [Example 148, 1,3-bis(2-methoxyethyl)-2-methyl-4,9-dioxo-4,9-dihydro-1H-naphtho[2,3-d]imidazol-3-ium] | Mortal case was not found |
| COCCN(C(C)=O)C1=C(NCc2ccncc2)C(=O)c2ccccc2C1=O [Example 37, N-(2-methoxyethyl)-N-[3-(4-pyridylmethyl)amino-1,4-dihydro-1,4-dioxo-2-naphthalenyl]acetamide] | Mortal case was not found |
| CCn1c2c([n+](CC)c1C)C(=O)c1ccccc1C2=O [KP-3, reference compound] | all of respective 2 cases died |
| COCC[n+]1c2c(n(Cc3cccnc3Cl)c1C)C(=O)c1ccccc1C2=O [Example 184, 1-[(2-chloro-3-pyridyl)methyl]-3-(2-methoxyethyl)-2-methyl-4,9-dioxo-4,9-dihydro-1H-naphtho[2,3-d]imidazol-3-ium] | Mortal case was not found |
